Test results taken from ChEMBL document CHEMBL1150975, “Biochemical and three-dimensional-structural study of the specific inhibition of protein kinase CK2 by [5-oxo-5,6-dihydroindolo-(1,2-a)quinazolin-7-yl]acetic acid (IQA)” (Biochem J, 2003).
pIC50: −log10 of the molar value.

Tests used:
[1] = target: Insulin receptor (Homo sapiens) (UniProt P06213); assay: Percent residual Ins-R activity in the presence of 10uM inhibitor
[2] = target: Vascular endothelial growth factor receptor 2 (Homo sapiens) (UniProt P35968); assay: Percent residual KDR activity in the presence of 10uM inhibitor
[3] = target: Phosphatidylinositol 4,5-bisphosphate 3-kinase catalytic subunit gamma isoform (Homo sapiens, UniProt P48736); assay: Inhibition of PI3K gamma
[4] = target: Insulin-like growth factor 1 receptor (Homo sapiens) (UniProt P08069); assay: Percent residual IGF-1R activity in the presence of 10uM inhibitor
[5] = target: Vascular endothelial growth factor receptor 3 (Homo sapiens) (UniProt P35916); assay: Percent residual Flt-4 activity in the presence of 10uM inhibitor
Vascular endothelial growth factor receptor 3 (Homo sapiens), sequence (P35916 whole entry): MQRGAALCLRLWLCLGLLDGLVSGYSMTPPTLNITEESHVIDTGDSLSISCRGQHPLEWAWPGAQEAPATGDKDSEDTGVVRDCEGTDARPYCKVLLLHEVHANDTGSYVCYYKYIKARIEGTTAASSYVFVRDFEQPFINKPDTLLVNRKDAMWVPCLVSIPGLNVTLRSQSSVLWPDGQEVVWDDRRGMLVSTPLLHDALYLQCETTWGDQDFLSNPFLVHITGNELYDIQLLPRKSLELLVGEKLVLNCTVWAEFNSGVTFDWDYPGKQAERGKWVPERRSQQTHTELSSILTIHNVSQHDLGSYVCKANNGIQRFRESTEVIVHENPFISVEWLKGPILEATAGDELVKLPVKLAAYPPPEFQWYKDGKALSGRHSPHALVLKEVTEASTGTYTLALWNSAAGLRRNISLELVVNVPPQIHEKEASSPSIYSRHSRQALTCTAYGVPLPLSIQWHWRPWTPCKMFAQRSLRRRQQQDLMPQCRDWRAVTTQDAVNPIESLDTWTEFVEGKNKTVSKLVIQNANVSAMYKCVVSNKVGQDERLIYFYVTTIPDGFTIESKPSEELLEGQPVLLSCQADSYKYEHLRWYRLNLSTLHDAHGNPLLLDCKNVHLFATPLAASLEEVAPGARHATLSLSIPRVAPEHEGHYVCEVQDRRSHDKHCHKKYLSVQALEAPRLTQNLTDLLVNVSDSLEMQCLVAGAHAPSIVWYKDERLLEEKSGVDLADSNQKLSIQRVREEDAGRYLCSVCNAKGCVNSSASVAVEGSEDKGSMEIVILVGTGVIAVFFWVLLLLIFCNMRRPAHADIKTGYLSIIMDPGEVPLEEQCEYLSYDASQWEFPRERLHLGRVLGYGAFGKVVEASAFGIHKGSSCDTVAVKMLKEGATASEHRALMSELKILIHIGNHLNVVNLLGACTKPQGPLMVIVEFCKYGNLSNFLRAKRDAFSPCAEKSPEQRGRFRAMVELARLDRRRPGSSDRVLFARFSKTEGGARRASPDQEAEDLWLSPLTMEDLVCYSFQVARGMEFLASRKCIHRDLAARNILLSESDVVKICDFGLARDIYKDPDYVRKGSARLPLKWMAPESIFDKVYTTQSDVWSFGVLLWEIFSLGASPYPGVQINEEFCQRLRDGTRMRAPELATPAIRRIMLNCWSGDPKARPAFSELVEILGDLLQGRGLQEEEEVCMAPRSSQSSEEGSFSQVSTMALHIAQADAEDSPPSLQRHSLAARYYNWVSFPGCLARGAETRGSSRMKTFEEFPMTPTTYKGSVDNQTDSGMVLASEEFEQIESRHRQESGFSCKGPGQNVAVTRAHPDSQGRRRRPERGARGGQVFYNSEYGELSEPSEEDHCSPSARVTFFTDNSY

Insulin-like growth factor 1 receptor (Homo sapiens), sequence (P08069 31-736 limits assumed): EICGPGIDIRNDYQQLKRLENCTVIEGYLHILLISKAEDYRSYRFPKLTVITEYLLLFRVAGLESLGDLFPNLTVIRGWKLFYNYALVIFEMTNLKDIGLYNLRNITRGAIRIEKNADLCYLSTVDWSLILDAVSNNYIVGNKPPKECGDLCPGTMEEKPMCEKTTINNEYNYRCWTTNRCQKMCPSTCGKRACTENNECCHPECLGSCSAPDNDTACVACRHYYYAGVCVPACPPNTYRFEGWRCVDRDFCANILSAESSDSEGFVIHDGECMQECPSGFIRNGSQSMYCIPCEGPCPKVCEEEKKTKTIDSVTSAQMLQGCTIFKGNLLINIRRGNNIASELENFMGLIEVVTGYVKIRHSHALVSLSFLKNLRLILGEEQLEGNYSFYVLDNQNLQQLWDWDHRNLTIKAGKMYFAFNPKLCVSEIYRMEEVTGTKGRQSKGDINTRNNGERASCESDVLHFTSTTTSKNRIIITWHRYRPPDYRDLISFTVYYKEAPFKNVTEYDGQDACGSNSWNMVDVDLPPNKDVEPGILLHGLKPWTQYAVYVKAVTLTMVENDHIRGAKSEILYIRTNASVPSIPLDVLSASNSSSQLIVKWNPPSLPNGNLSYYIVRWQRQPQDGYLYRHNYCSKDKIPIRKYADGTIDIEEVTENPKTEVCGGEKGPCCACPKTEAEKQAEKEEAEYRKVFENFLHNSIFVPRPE
Insulin-like growth factor 1 receptor (Homo sapiens), sequence (P08069 741-1367 limits assumed): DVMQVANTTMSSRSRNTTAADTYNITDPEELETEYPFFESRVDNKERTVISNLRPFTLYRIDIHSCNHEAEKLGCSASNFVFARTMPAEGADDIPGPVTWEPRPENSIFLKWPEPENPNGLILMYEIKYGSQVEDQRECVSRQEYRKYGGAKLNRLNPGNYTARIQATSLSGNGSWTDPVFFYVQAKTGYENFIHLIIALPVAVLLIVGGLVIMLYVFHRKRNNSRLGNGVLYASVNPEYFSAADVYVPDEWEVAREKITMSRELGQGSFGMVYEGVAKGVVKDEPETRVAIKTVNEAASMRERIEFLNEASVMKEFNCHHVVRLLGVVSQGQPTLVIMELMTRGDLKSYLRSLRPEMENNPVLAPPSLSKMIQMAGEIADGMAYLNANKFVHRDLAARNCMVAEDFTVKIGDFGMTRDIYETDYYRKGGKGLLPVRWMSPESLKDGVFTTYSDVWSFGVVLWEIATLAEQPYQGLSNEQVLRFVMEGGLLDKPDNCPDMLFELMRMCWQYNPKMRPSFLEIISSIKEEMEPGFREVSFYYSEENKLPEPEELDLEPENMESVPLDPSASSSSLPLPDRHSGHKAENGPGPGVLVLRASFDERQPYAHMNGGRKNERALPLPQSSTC
Vascular endothelial growth factor receptor 2 (Homo sapiens), sequence (P35968 whole entry, canonical isoform): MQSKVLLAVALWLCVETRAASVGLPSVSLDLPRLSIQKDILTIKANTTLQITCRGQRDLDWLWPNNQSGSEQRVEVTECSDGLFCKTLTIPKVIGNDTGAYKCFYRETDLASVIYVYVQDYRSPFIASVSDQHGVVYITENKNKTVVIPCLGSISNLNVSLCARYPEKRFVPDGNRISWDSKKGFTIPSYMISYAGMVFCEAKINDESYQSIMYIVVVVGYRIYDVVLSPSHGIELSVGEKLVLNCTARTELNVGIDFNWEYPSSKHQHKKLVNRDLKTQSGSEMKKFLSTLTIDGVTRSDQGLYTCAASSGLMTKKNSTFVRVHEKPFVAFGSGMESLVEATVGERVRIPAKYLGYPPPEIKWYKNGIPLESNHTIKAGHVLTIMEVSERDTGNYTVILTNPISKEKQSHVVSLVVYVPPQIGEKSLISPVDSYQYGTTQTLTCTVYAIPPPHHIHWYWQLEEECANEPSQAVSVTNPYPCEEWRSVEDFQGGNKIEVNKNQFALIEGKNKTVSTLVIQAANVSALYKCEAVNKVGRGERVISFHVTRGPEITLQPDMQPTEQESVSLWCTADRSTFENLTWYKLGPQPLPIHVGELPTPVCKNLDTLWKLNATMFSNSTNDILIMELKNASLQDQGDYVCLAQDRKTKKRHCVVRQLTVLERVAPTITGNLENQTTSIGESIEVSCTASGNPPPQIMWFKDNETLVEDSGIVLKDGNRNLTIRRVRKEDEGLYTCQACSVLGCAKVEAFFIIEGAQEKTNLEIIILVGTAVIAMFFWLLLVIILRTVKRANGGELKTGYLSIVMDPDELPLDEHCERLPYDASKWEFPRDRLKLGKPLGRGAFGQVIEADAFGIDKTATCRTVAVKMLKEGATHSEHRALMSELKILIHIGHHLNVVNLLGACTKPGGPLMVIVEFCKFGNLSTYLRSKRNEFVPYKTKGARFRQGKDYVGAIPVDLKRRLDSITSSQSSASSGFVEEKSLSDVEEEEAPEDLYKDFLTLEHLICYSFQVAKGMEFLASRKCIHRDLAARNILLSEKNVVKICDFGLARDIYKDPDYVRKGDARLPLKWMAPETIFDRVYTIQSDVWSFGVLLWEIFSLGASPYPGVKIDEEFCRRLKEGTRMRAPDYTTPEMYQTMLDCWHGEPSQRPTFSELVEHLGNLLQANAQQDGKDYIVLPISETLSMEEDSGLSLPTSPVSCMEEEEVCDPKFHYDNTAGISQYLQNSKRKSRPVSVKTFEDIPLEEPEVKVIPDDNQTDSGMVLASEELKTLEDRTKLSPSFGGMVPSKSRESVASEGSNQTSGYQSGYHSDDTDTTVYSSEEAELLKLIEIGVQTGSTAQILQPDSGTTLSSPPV

Structure (SMILES): O=C(O)Cc1c2ccccc2n2c1[nH]c(=O)c1ccccc12
- Activity [1]: 80%
- Activity [2]: 80%
- pIC50 [3]: < 3.70
- Activity [4]: 80%
- Activity [5]: 80%
